Laboratory results from patent publication US7592320B2, “Cancer gene therapy based on translational control of a suicide gene” (priority 2001, dated 2009).
Where two headings read alike, the source gives them in different places.

What was measured:
MDA-231 = conditions: for ED50: GCV 14 days
MM2MT tumors = experiment: Tumor ablation, MM2MT mammary fat pad tumors (about 40 mm^3) in athymic mice; type: in vivo, BALB/c athymic nu/nu mice; conditions: GCV administered alone (data not shown)
Procedure: 10^6 MM2MT cells were suspended in 0.1 ml serum and antibiotic-free DMEM medium and injected subcutaneously into the mammary fat pad. Tumor latency was determined as the time necessary for the tumors to grow to 0.5 cm (largest diameter). Tumor doubling times were determined by daily measuring the smallest (d) and the largest (D) diameters with calipers, and estimating the volume using the formula, V=D×d^2×0.52. The reported numbers are the mean and standard deviation of the tumor volumes for each group.
When the tumor volumes were approximately 40 mm^3, the mice were randomly separated into two groups, and either the BK-TK or the BK-UTK vectors were injected as a liposomal complex near the tumor. To make the liposomal complex for transfection of primary tumors, 10 μg of endotoxin-free purified (QIAGEN, Inc., Valencia, Calif.) plasmid DNA was diluted in 50 μl medium without serum or antibiotics. In a separate tube, 50 μl of GenePORTER reagent (Gene Therapy Systems, San Diego, Calif.) was mixed with 50 μl serum and antibiotic-free medium. The two tubes were then combined, briefly vortexed, and allowed to incubate at room temperature for 20 minutes, after which the resulting liposome complex was injected between the tumor and the skin of the mouse.
One of the 6 mice in each group had no palpable tumor remaining at the end of the 10-day treatment.

MDA-435S = conditions: GCV 14 days
MCF7 = conditions: GCV 14 days
MCF-10A = conditions: GCV 14 days
MM3MG = experiment: cells; conditions: for EC50: Mus musculus, MM3MG, 336 h, GCV 14 days
Procedure: (§1) Each vector was then stably transfected into either MM3MG cells (ATCC No.CRL6376, a normal mouse mammary line) or MM2MT cells (ATCC No. CRL6373, a mouse mammary carcinoma line). Unless otherwise stated, all cell lines were purchased from the American Type Culture Collection (“ATCC”), Manassas, Va. To overexpress eIF4E (referred to as eIF4E-S, for “sense”), the eIF4E cDNA was cloned into KpnI and NotI sites of the pREP7 episomal vector (Invitrogen, Carlsbad, Calif.). To reduce the eIF4E expression (referred to as eIF4E-AS, for “antisense”), an antisense eIF4E construct was subcloned into the pREP7 vector as described in A. De Benedetti et al., “Expression of antisense RNA against initiation factor eIF-4E mRNA in HeLa cells results in lengthened cell division times, diminished translation rates, and reduced levels of both eIF-4E and the P220 component of eIF-4F,” Mol. Cell. Biol., vol. 11, pp. 5435-5445 (1991).
(§2) All transfections were performed with the GenePORTER reagent (Gene Therapy Systems, San Diego, Calif.). Stable cell lines were obtained by selection with G418 for the BK constructs, and Hygromycin B for the pREP7 vectors.

MM2MT = experiment: cells; conditions: Mus musculus, 336 h, GCV 14 days
Procedure: as §1, §2

With `Nc1nc(O)c2ncn(COC(CO)CO)c2n1` [GCV, Ganciclovir] as the compound, how does the “GCV concentration of non-specific toxicity” value (MDA-231; MDA-231-TK and MDA-231-UTK cells, otherwise insensitive to GCV) read?
The value was 5 mM.

And the ED50 (MDA-231; MDA-231-TK cells)?
The ED50 was 4000 µM.

What about the ED50 (MDA-231; MDA-231-UTK cells) of the same compound?
Its ED50 is 4000 µM.

And the ED50 (MDA-231; MDA-231 untransfected cells)?
Its ED50 is 6000 µM.

And the “effect on the growth of MM2MT tumors” value (MM2MT tumors)?
Its value is “no effect”.

And the ED50 (MDA-435S; MDA-435S untransfected cells)?
Its ED50 is 350 µM.

What about the ED50 (MDA-435S; MDA-435S-TK cells) of the same compound?
The ED50 was 15 µM.

What about the ED50 (MDA-435S; MDA-435S-UTK cells) of the same compound?
Its ED50 is 15 µM.

And the ED50 (MCF7; MCF7-TK cells)?
The ED50 was 20 µM.

What about the ED50 (MCF7; MCF7-UTK cells) of the same compound?
Its ED50 is 10 µM.

And the ED50 (MCF7; MCF7 untransfected cells)?
The ED50 was 6000 µM.

What about the ED50 (MCF-10A; MCF-10A untransfected cells) of the same compound?
The ED50 was 6000 µM.

What about the ED50 (MCF-10A; MCF-10A-TK cells) of the same compound?
The ED50 was 300 µM.

What about the ED50 (MCF-10A; MCF-10A-UTK cells) of the same compound?
The ED50 was 5500 µM.

And the “GCV concentration to which cells were sensitive (dose-response curve)” value (MM3MG; MM3MG-TK (normal) cells, 14 days)?
Its value is 0.1 µM.

And the EC50 (MM3MG; read-out: ED50, MM3MG untransfected cells, concentration that kills 50% of the cells)?
Its EC50 is 200 µM.

And the EC50 (MM3MG; read-out: ED50, MM3MG-TK cells)?
The EC50 was 0.3 µM.

What about the EC50 (MM3MG; read-out: ED50, MM3MG-UTK cells) of the same compound?
The EC50 was 75 µM.

What about the EC50 (MM3MG; read-out: ED50, MM3MG-UTK/4E-AS cells (so in the source)) of the same compound?
Its EC50 is 0.9 µM.

What about the “GCV concentration at which cells were non-specifically inhibited” value (MM3MG; untransfected MM3MG cells, 14 days) of the same compound?
The value was 200 µM.

And the EC50 (MM2MT; read-out: ED50, MM2MT untransfected cells)?
Its EC50 is 95 µM.

And the EC50 (MM2MT; read-out: ED50, MM2MT-TK cells)?
The EC50 was 0.095 µM.

What about the EC50 (MM2MT; read-out: ED50, MM2MT-TK/4E-AS cells) of the same compound?
Its EC50 is 0.15 µM.

What about the EC50 (MM2MT; read-out: ED50, MM2MT-UTK cells) of the same compound?
The EC50 was 0.5 µM.

And the EC50 (MM2MT; read-out: ED50, MM2MT-UTK/4E-AS cells)?
The EC50 was 55 µM.
